Measurements as given in EP4104817A1, “OPHTHALMIC COMPOSITION COMPRISING ASTRAGALOSIDE IV” (Skeye Pharma GbR, priority 2021, dated 2022).

Legend:
[1] = system: Human corneal epithelial cells (hCEC); assay: WST-1 cell viability assay, 72 hours of treatment; type: cell-based; conditions: DMSO-treated control 100 ± 9%, mean ± standard deviation
Protocol: (§1) Human corneal epithelial cells (hCEC; SCCE016; Merck Millipore, Burlington, MA, USA) were cultured in corneal epithelial cell growth medium with supplement mix (LGC Standards, Teddington, United Kingdom). Approximately 10,000 hCECs were seeded onto each well of a 96-well cell-culture dishes (NUNC, Langenselbold, Germany). Confluent cells were used for Water-soluble tetrazolium salt (WST-1) cell proliferation assays (Hoffmann-La Roche AG, Basel, Switzerland). After 24 hours of incubation with 100 µl of corneal epithelial cell growth medium without its' supplement mix (LGC Standards, Teddington, United Kingdom), hCECs were treated with different concentrations of astragaloside IV (AIV; Selleckchem, Houston, TX, USA) dissolved in dimethyl sulfoxide (DMSO; Carl Roth AG, Karlsruhe, Germany). Control groups were treated with DMSO only. Following another 72 hours of incubation, the cells were incubated with the WST-1 solution for 30 minutes. Substrate turnover was measured with an ELISA reader at 450 nm (Spectramax 190; Molecular Devices, Sunnyvale, CA, USA) and a reference at 690 nm.

hCEC [2] = assay: BrdU ELISA cell proliferation assay, 24 hours of treatment; type: cell-based; conditions: Homo sapiens, compared to DMSO-treated control, mean ± standard deviation
Protocol: Proliferation of hCEC was determined using a 5-bromo-2'-deoxyuridine (BrdU) ELISA in accordance with the manufacturers' recommendations (Merck KGaA, Darmstadt, Germany). In brief, approximately 7,000 cells were seeded onto a 96-well cell culture plate and incubated for 24h to achieve complete adherence of the cells. After 24 hours of incubation with 100 µl of corneal epithelial cell growth medium without its' supplement mix, hCECs were treated with astragaloside IV dissolved in DMSO. Following another 24 hours of incubation with BrdU labeling solution, cells were fixed and incubated with anti-BrdU antibodies according to the manufacturer's recommendations. BrdU incorporation into the DNA of hCECs was quantified by absorbance measurement at 450 nm using the ELISA reader Spectramax 190 (Molecular Devices, Sunnyvale, CA, USA).

hCEC [3] = assay: Cell scratch assay (migration / wound healing in vitro), follow-up up to 72 hours; type: cell-based, Human; conditions: 1 µM, 2.5 µM; follow-up of 72 hours; versus DMSO-only control; p > 0.05 for all groups
Protocol: To analyze hCEC migration in vitro, cells were cultured in corneal epithelial cell growth medium with supplement mix until confluence of the cells of a 6-well cell culture plate. Following an incubation period of 24 hours in cell culture medium without supplements, 5 linear scratches were performed in each well using a 200 µl pipette tip (Eppendorf AG, Hamburg, Germany). The hCECs were then incubated prospectively under treatment with astragaloside IV or DMSO as a control for up to 72 hours. Reference images were acquired at the beginning of the incubation period using the phase contrast mode on an Axio Observer 7 (Carl Zeiss AG, Jena, Germany). Every 24 hours, follow-up images of 4-5 different scratch sections were acquired. The size of the wound area was analyzed using a semi-automated analysis tool in ImageJ 1.53a (National Institute of Health, Bethesda, MD, USA).

bovine corneas = assay: Corneal erosion assay ex vivo (epithelial wound healing), follow-up 72 hours; conditions: 1 µM or 2.5 µM, every 12 hours up to 72 hours, versus DMSO-treated control, p > 0.05 for all groups
Protocol: Furthermore, corneal epithelial cell wound healing was determined on bovine corneas ex vivo. Bovine globes were obtained from a local butchery following approval by the authority for waste management of animal carcasses (ID: DE 09 162 0066-219) and processed within 12 hours post-mortem. The bovine globes were washed in 10% w/v povidone-iodine for 5 minutes. A circular corneal epithelial erosion was created using an 8 mm trephine and a hockey knife (Katena Products Inc., Parsippany, NJ, USA). Subsequently, a sclerocorneal ring was excised with eye scissors (Katena Products Inc., Parsippany, NJ, USA) and transferred to a 60 mm cell culture plate. To acquire reference images of the corneal erosion, the wound area was stained with a 0.8 mg/ml fluorescein sodium solution and illuminated with blue light (approximate wavelength 490 nm). Images were acquired using a distance-fixed digital single lens reflex camera equipped with a macro lens (Canon Inc., Tokyo, Japan). Consequently, the sclerocorneal rings were incubated in Dulbecco's Modified Eagle's Medium (Bio&SELL GmbH, Feucht, Germany) supplemented with 50 IU penicillin/ml and 50 µg streptomycin/ml (Merck Millipore, Burlington, MA, USA) and astragaloside IV or DMSO only. Follow-up images were acquired every 12 hours, the cell culture medium was renewed daily.

[4] = system: human corneal epithelial cells; assay: WST-1 cell viability assay under oxidative stress (H2O2 100 µM, 24 hours); type: cell-based; conditions: H2O2 group 79 ± 14%, untreated control 100 ± 3%
Protocol: as §1
To determine potential anti-oxidative effects of astragaloside IV, hCECs were incubated and treated analogous to the above-mentioned WST-1 cell proliferation assay with minor modifications. […]

[5] = system: Intracellular, mitochondrial reactive oxygen species (ROS); assay: Dihydrorhodamine-123 (DHR-123) fluorescence assay of ROS under oxidative stress (H2O2, 2 hours); type: cell-based; conditions: Homo sapiens, HCEC, hCECs, percent of DMSO control, H2O2 group 149 ± 9%, p = 0.0006 vs H2O2
Protocol: Intracellular, mitochondrial reactive oxygen species (ROS) were assessed using the cell membrane permeable dihydrorhodamine-123 (DHR-123) assay (D23806; ThermoFisher Scientific, Waltham, MA, USA) according to the manufacturer's instructions. Measurements were made after exposing human corneal epithelial cells to H2O2, astragaloside IV or DMSO for 2 hours. For ROS staining, cells were incubated with 10 µM DHR-123 for 15 minutes. Nucleus staining was performed using Hoechst 33342 nucleic acid stain (H1399; ThermoFisher Scientific, Waltham, MA, USA). Randomly, a minimum of 3 images of every treatment group were acquired with a 20x fluorescence objective using the aforementioned Axio Observer 7. Results were expressed in percent of fluorescence intensity relative to the baseline measurement in the DMSO control group. For quantification of the fluorescence signals, the microscope software ZEN 3.0 (Carl Zeiss AG, Jena, Germany) was used.

CC(C)(O)C1CCC(C)(C2C(O)CC3(C)C4CC(OC5OC(CO)C(O)C(O)C5O)C5C(C)(C)C(OC6OCC(O)C(O)C6O)CCC56CC46CCC23C)O1 [astragaloside IV, (2R,3R,4S,5S,6R)-2-(((2aR,3R,4R,5aS,7R,11aR)-4-hydroxy-3-((2R,5S)-5-(2-hydroxypropan-2-yl)-2-methyltetrahydrofuran-2-yl)-2a,5a,8,8-tetramethyl-9-(((2S,3R,4S,5R)-3,4,5-trihydroxytetrahydro-2H-pyran-2-yl)oxy)hexadecahydrocyclopenta[a]cyclopropa[e]phenanthren-7-yl)oxy)-6-(hydroxymethyl)tetrahydro-2H-pyran-3,4,5-triol]
viability at 1 µM ([1]; 1 µM, p < 0.0001): 154 ± 33%
viability at 2.5 µM ([1]; 2.5 µM, p < 0.0001): 149 ± 27%
viability at 5 µM ([1]; 5 µM, p = 0.0003): 138 ± 22%
viability at 10 µM ([1]; 10 µM, non-significant decrease, p > 0.9999): 89 ± 5%
activity at 1 µM (hCEC [2]; 1 µM, p = 0.0028, read-out: corneal epithelial cell proliferation): 125 ± 26%
activity at 2.5 µM (hCEC [2]; 2.5 µM, p = 0.0017, read-out: corneal epithelial cell proliferation): 126 ± 30%
activity at 5 µM (hCEC [2]; 5 µM, not significant, p > 0.9999, read-out: corneal epithelial cell proliferation): 112 ± 14%
corneal epithelial cell migration (scratched hCEC area over time) (hCEC [3]): none of the treatment groups showed a significant decrease of corneal epithelial cell migration
speed of re-epithelialization (bovine corneas): did not show any significant difference in the speed of re-epithelialization
viability at 1 µM ([4]; 1 µM with H2O2 100 µM, p = 0.0044 vs H2O2): 91 ± 4%
viability at 2.5 µM ([4]; 2.5 µM with H2O2 100 µM, p = 0.0002 vs H2O2): 95 ± 6%
activity at 1 µM ([5]; 1 µM with H2O2 100 µM): 94 ± 7%
activity at 2.5 µM ([5]; 2.5 µM with H2O2 100 µM): 94 ± 15%
